Source: patent US10980777B2, “Indole derivatives as histone demethylase inhibitors” (Istituto Europeo di Oncologia S.r.l., priority 2017, dated 2021)
Counter-ions that a name gives are not always drawn.

Tests used:
[1] = molecular target: T1, human recombinant KDM1A/CoREST protein (Homo sapiens, UniProt O60341); assay: Assay of enzyme inhibition of KDM1A (LSD1), TR-FRET; format: biochemical; details: 0.25 nM KDM1A/CoREST, 50 nM H3K4 monomethylated peptide, 20 min at RT; read-out: IC50, KDM1A (LSD1) enzyme inhibition
T1 construct: made in house; host or cells: E. coli
Protocol: 2.1 Assay of Enzyme Inhibition of KDM1A (LSD1)
The KDM1A inhibiting activity was determined using a TR-FRET assay (time resolved fluorescence resonance energy transfer, Lance® Ultra Demethylase technology (Perkin Elmer, Waltham, Mass., USA)), which comprises a Europium chelate donor dye (TRF0404, Perkin Elmer, Waltham, Mass., USA) together with ULight™ (TR0102, Perkin Elmer, Waltham, Mass., USA), a small molecular weight acceptor dye with a red-shifted fluorescent emission, and a biotinylated 21 amino acids histone H3-derived monomethylated peptide (H3K4me) [Lys(Me1)4]-Histone H3 (1-21)-GGK(biotin), (64355, Anaspec, Fremont, Calif., USA) as substrate. The intensity of the light emission is proportional to the level of biotinylated reaction product. The complex of human recombinant KDM1A/CoREST protein was produced in E. coli as separate proteins and co-purified as previously described.(Forneris, F. et al. Trends Biochem, Sci, 2008, 33, 181-189) (Forneris, F. et al. J. Biol. Chem. 2007, 282, 20070-20074).
Demethylase Assay conditions: 0.25 nM KDM1A/CoREST protein and compound in 100% DMSO were added in a final volume of 48 μL assay buffer (Tris HCl 50 mM pH 8.8, NaCl 50 mM, DTT 1 mM, Tween-20 0.01% (by volume)) to each well of a 96 well half area flat bottom white plate (3693 Costar, Sigma-Aldrich, St. Louis, M, USA).
Demethylase reaction was started by the addition of 50 nM histone H3K4 monomethylated. After 20 min at RT, 300 μM tranylcypromine (P8511-1G, Sigma-Aldrich, St. Louis, Mo. 63103) was added to stop the reaction.
Detection step conditions: 10 μL of the assay mixture was transferred from the original plate into a 384 well white plate (6007290 OptiPlate™, Perkin Elmer, Waltham, Mass., USA) and 10 μL of the detection Mix containing 2 nM Eu-antibody and 10 nM U-Light-Streptavidin in 1× Lance Detection Buffer (TRF0404, TR0102, CR97100, Perkin Elmer, Waltham, Mass., USA). The resulting mixture was incubated in the dark for 1 h at RT. Then, TR-FRET signal was read by a fluorimeter (Infinite® F200, Tecan, Männedorf, Switzerland) (Excitation 320 nm, Emission 665 nm and 620 nm, delay time 50 μs, window time 100 μs).
IC50 determination: The inhibitor concentrations ranged from 0.025 to 500 μM (serial 1:3 dilutions). The IC50 was calculated using GraphPad Software.

[2] = tested on: Human leukemia MV4-11 cells; assay: Cell growth, CellTiter-Fluor cell viability assay, MV4-11; format: cell-based; details: 48 h incubation, read-out: IC50 against human leukemia MV4-11 cells
Excerpt: (§1) CellTiter-Flor® (Promega) is as a nonlytic, single-reagent-addition fluorescence assay that measures the relative number of living cells in a culture population after experimental manipulation. The CellTiter-Fluor™ Cell Viability Assay measures the conserved and constitutive protease activity within live cells and therefore acts as a marker for cell viability.
(§2) Human leukemia MV4-11 cells, (obtained from the Deutsche Sammlung von Mikroorganismen und Zellkulturen, ACC 102) or NB4 cells, (obtained from the Deutsche Sammlung von Mikroorganismen und Zellkulturen) in exponential growth, were incubated for 48 h with different concentrations of the inhibitors. After 48 h a volume of CellTiter-Fluor® Reagent equal to one fifth of volume of cell culture medium was added. The content was mixed and incubates for at least 90 min at 37° C. degree to obtain a stable signal. The fluorescence was recorded using an excitation wavelength of 360 nm and an emission at 535 nm. The IC50 was calculated using GraphPad Software.

human leukemia NB4 cells = assay: Cell growth, CellTiter-Fluor cell viability assay, NB4; format: cell-based; details: NB-4, 48 h incubation, read-out: IC50 against human leukemia NB4 cells
Excerpt: as §1, §2

Question: Cn1c(C(=O)c2cn(CCOc3ccc(OCC4CCNCC4)cc3)c3ccccc23)cc2sccc21 [Compound 19, (4-methylthieno[3,2-b]pyrrol-5-yl)-[1-[2-[4-(4-piperidylmethoxy)phenoxy]ethyl]indol-3-yl]methanone hydrochloride] was tested. Which IC50 [1] did it give?
Answer: The IC50 was < 0.5 µM.

Question: And the IC50 [2]?
Answer: The IC50 was < 10 µM.

Question: What about the IC50 (human leukemia NB4 cells) of the same compound?
Answer: Its IC50 is < 10 µM.
